Five compounds from patent US20250069697A1, “AN IMPROVED METHOD TO IDENTIFY NUCLEIC ACID SEQUENCES WITHIN A SET OF SEQUENCES OBTAINED BY A SEQUENCER AND A SYSTEM” (priority 2022, published 2025) can be followed below.

Common to all, as to type: cell-based
In one experiment the test system is Escherichia coli. The experiment can be described thus: Growth of the isolate in antibiotic mediums, sample 5. The conditions noted are these: microorganism isolated in sample 5 (Escherichia coli); grown in antibiotic medium. From the text:
(§1) Each microorganism was growth in at least two antibiotic mediums, in which the improved method predicted resistance, and at least two antibiotic mediums in which the improved method predicted susceptibility, in order to corroborate the obtained results.

For experiment [1], the system named is Staphylococcus epidermidis. Description: Growth of the isolate in antibiotic mediums, sample 4. The conditions noted are these: microorganism isolated in sample 4 (Staphylococcus epidermidis); grown in antibiotic medium.
Source text: as §1

In another experiment the test system is Klebsiella pneumoniae. Description: Growth of the isolate in antibiotic mediums, sample 1. Conditions: microorganism isolated in sample 1 (Klebsiella pneumoniae); grown in antibiotic medium.
Source text: as §1

A further experiment has as its system Staphylococcus aureus. Description: Growth of the isolate in antibiotic mediums, sample 2. The conditions noted are these: microorganism isolated in sample 2 (Staphylococcus aureus); grown in antibiotic medium.
Source text: as §1

The next experiment deals with Enterococcus faecalis. The experiment can be described thus: Growth of the isolate in antibiotic mediums, sample 3. Conditions: microorganism isolated in sample 3 (Enterococcus faecalis); grown in antibiotic medium.
Source text: as §1

Regarding `CO/N=C(\C(=O)N[C@@H]1C(=O)N2C(C(=O)O)=C(CSc3nc(=O)c(=O)[nH]n3C)CS[C@H]12)c1csc(N)n1` [Ceftriaxone], the Result result (with Escherichia coli; in experiment [1]; in the experiment on Klebsiella pneumoniae) was “Resistant” throughout.

`CC[C@H]1OC(=O)[C@H](C)[C@@H](O[C@H]2C[C@@](C)(OC)[C@@H](O)[C@H](C)O2)[C@H](C)[C@@H](O[C@@H]2O[C@H](C)C[C@H](N(C)C)[C@H]2O)[C@](C)(O)C[C@@H](C)CN(C)[C@H](C)[C@@H](O)[C@]1(C)O` [azithromycin]: the Result result in the experiment on Staphylococcus aureus is “Resistant”.

Turning to `NCC[C@H](O)C(=O)N[C@@H]1C[C@H](N)[C@@H](O[C@H]2O[C@H](CN)[C@@H](O)[C@H](O)[C@H]2O)[C@H](O)[C@H]1O[C@H]1O[C@H](CO)[C@@H](O)[C@H](N)[C@H]1O` [Amikacin], the Result result (in the experiment with Staphylococcus aureus; in the experiment on Escherichia coli; in experiment [1]; in the experiment with Klebsiella pneumoniae; in the experiment on Enterococcus faecalis) was “Not resistant” in each case.

As for `O=C(O)c1cn(C2CC2)c2cc(N3CCNCC3)c(F)cc2c1=O` [Ciprofloxacin], the Result result was “Resistant” in the experiment with Staphylococcus aureus; “Resistant” in the experiment with Escherichia coli; “Resistant” in experiment [1]; “Resistant” in the experiment with Klebsiella pneumoniae; “Not resistant” with Enterococcus faecalis.

For the compound `COc1cccc(OC)c1C(=O)N[C@@H]1C(=O)N2[C@@H]1SC(C)(C)[C@@H]2C(=O)O` [Methicillin], the Result entry (in the experiment on Staphylococcus aureus; in the experiment on Escherichia coli; in experiment [1]; in the experiment on Klebsiella pneumoniae) was “Not resistant” in each case.
